Assay results published in publication PMC7572726 (Nature, 2020).

Key:
Assay in all cases: EMSA
Type in all cases: binding
Conditions in all cases: labelled compound (32P, ~1 uM), 20 uM protein; pH 7.5, 25 C
FdSTING = molecular target: T1, FdSTING (Flavobacterium daejeonense, UniProt P0DUD9)
T1 sequence (P0DUD9 1-311): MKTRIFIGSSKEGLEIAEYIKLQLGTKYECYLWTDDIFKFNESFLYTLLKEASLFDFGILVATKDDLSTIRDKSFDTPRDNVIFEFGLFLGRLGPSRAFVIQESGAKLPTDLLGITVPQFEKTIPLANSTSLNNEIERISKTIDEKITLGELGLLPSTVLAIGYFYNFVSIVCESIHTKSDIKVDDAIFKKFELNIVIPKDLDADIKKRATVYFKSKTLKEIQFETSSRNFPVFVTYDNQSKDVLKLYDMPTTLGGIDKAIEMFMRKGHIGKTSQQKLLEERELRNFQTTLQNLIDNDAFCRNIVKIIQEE

NdSTING = molecular target: T2, NdSTING (Niabella drilacis, UniProt A0A1G6LGU2)
T2 sequence (A0A1G6LGU2 1-312): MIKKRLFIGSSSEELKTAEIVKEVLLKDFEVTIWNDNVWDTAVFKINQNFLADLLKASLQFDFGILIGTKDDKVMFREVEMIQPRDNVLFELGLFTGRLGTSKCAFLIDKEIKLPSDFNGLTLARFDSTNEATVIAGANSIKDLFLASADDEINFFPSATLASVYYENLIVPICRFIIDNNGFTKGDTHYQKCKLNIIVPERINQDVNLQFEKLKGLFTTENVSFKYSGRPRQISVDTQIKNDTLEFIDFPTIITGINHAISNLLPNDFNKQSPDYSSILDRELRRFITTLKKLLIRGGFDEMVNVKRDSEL

AaSTING = AaSTING (Aggregatibacter actinomycetemcomitans, UniProt A0A5D0EMF2)
Chain of AaSTING (A0A5D0EMF2 whole entry): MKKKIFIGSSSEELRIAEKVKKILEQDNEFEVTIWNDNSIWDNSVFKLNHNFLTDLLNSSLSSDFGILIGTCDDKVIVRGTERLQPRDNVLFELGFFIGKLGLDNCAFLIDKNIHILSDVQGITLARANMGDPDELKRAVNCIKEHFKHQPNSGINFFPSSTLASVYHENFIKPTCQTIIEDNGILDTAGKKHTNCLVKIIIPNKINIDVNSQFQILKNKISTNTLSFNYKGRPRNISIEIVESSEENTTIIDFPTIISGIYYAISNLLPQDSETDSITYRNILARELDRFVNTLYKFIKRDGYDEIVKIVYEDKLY

LbSTING = molecular target: T3, LbSTING (Lachnospiraceae bacterium RUG226, UniProt P0DUE0)
T3 sequence (P0DUE0 1-316): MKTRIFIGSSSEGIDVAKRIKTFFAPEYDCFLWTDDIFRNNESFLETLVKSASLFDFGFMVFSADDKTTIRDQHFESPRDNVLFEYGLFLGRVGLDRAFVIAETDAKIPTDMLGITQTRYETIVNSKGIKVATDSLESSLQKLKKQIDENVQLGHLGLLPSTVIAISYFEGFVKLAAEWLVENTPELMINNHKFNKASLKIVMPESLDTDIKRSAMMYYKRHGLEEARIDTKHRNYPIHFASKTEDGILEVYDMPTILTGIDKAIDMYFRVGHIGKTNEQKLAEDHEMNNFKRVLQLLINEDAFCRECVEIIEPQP

With `Nc1nc2c(ncn2[C@@H]2O[C@@H]3COP(=O)(O)O[C@H]4[C@@H](O)[C@H](n5cnc6c(=O)[nH]c(N)nc65)O[C@@H]4COP(=O)(O)O[C@H]3[C@H]2O)c(=O)[nH]1` [c-di-GMP] the EMSA (FdSTING) was “diverse panel of bacterial STING homologues demonstrates conservation of c-di-GMP binding”, the EMSA (NdSTING) was “diverse panel of bacterial STING homologues demonstrates conservation of c-di-GMP binding” and the EMSA (AaSTING) was “Bacterial STING receptors specifically recognize c-di-GMP”. The EMSA (LbSTING) was “Bacterial STING receptors specifically recognize c-di-GMP”.
